A short description of the data set: Solubility of salicylic acid in concentrated solution. In kind it is physicochemical. As to the method: Solutions 18-22 consisting of a solvent (Tamisolve NxG), a sparingly soluble antimicrobial agent (salicylic acid), and an antimicrobial surfactant (Biosoft S-101 LS) were prepared and are summarized in Table 3.
Solution 42 was prepared and visually inspected at the time of preparation, after 24 hours of storage at room temperature, and after one cycle of freezing and thawing.

`O=C(O)c1ccccc1O` [salicylic acid, Salicylic acid]: the “amount of salicylic acid effectively solubilized” value (Solution 42: Tamisolve NxG 35 wt. %, Biosoft S-101 LS 45 wt. %) came to 20 wt. %. Also, the “maximum amount of salicylic acid that was solubilized” value (Table 3 solutions: Tamisolve NxG 23.54 wt. % plus Biosoft S-101 LS) is 13 wt. %. In addition, the “solubility of salicylic acid relative to its solubility in water” value (in Solution 42) was “about 83 times”.

For the origin of these results see patent publication US20260114449A1, “CONCENTRATED ANTIMICROBIAL SOLUTIONS CONTAINING SPARINGLY SOLUBLE ANTIMICROBIAL AGENTS” (Virox Technologies Inc., priority 2023, published 2026).
